{
  "source": "PubChem BioAssay (NCI)",
  "assay_in_all_cases": "NCI-60 cell line screen, 48 h",
  "key": {"TK-10 renal": {"test_system": "TK-10 renal"}, "NCI-H460 lung": {"test_system": "NCI-H460 lung"}, "SNB-19 CNS": {"test_system": "SNB-19 CNS"}, "OVCAR-8 ovarian": {"test_system": "OVCAR-8 ovarian"}, "M14 melanoma": {"test_system": "M14 melanoma"}, "SK-OV-3 ovarian": {"test_system": "SK-OV-3 ovarian"}, "SF-295 CNS": {"test_system": "SF-295 CNS"}, "NCI-H522 lung": {"test_system": "NCI-H522 lung"}, "KM12 colon": {"test_system": "KM12 colon"}, "M19-MEL melanoma": {"test_system": "M19-MEL melanoma"}, "K-562 leukemia": {"test_system": "K-562 leukemia"}, "DMS 114 small cell lung": {"test_system": "DMS 114 small cell lung"}, "UACC-62 melanoma": {"test_system": "UACC-62 melanoma"}, "SF-268 CNS": {"test_system": "SF-268 CNS"}, "XF 498 CNS": {"test_system": "XF 498 CNS"}, "OVCAR-3 ovarian": {"test_system": "OVCAR-3 ovarian"}, "HOP-92 NSCLC": {"test_system": "HOP-92 NSCLC"}, "SK-MEL-2 melanoma": {"test_system": "SK-MEL-2 melanoma"}, "KM20L2 colon": {"test_system": "KM20L2 colon"}, "HT29 colon": {"test_system": "HT29 colon"}, "RPMI-8226 leukemia": {"test_system": "RPMI-8226 leukemia"}, "786-0 renal": {"test_system": "786-0 renal"}, "UACC-257 melanoma": {"test_system": "UACC-257 melanoma"}, "RXF-631 renal": {"test_system": "RXF-631 renal"}, "SNB-75 CNS": {"test_system": "SNB-75 CNS"}, "CCRF-CEM leukemia": {"test_system": "CCRF-CEM leukemia"}, "ACHN renal": {"test_system": "ACHN renal"}, "COLO 205 colon": {"test_system": "COLO 205 colon"}, "OVCAR-4 ovarian": {"test_system": "OVCAR-4 ovarian"}, "LOX IMVI melanoma": {"test_system": "LOX IMVI melanoma"}, "LXFL 529 NSCLC": {"test_system": "LXFL 529 NSCLC"}, "HOP-62 NSCLC": {"test_system": "HOP-62 NSCLC"}, "HL-60(TB) leukemia": {"test_system": "HL-60(TB) leukemia"}, "CAKI-1 renal": {"test_system": "CAKI-1 renal"}, "HOP-18 NSCLC": {"test_system": "HOP-18 NSCLC"}, "SR leukemia": {"test_system": "SR leukemia"}, "IGROV1 ovarian": {"test_system": "IGROV1 ovarian"}, "MOLT-4 leukemia": {"test_system": "MOLT-4 leukemia"}, "HCC-2998 colon": {"test_system": "HCC-2998 colon"}, "HCT-116 colon": {"test_system": "HCT-116 colon"}, "SW-620 colon": {"test_system": "SW-620 colon"}, "A549 NSCLC": {"test_system": "A549 NSCLC"}, "HCT-15 colon": {"test_system": "HCT-15 colon"}, "UO-31 renal": {"test_system": "UO-31 renal"}, "SK-MEL-28 melanoma": {"test_system": "SK-MEL-28 melanoma"}, "MALME-3M melanoma": {"test_system": "MALME-3M melanoma"}, "OVCAR-5 ovarian": {"test_system": "OVCAR-5 ovarian"}, "SF-539 CNS": {"test_system": "SF-539 CNS"}, "DLD-1 colon": {"test_system": "DLD-1 colon"}, "EKVX NSCLC": {"test_system": "EKVX NSCLC"}},
  "note": "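Dose response: 5 concentrations. Exposure: 48 h. Format: 96-well plates. Endpoint: linear interpolation; highest concentration if not reached. TGI: concentration producing complete growth inhibition.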",
  "data": [
    {"smiles": "O=c1oc2c3ccc4ccccc4c3n(CCCN3CCCCC3)c2c2ccccc12", "values": [
      {"measurement": "TGI", "setting": "TK-10 renal", "result": "> 100", "unit": "µM"},
      {"measurement": "TGI", "setting": "NCI-H460 lung", "result": "> 100", "unit": "µM"},
      {"measurement": "TGI", "setting": "SNB-19 CNS", "result": "> 100", "unit": "µM"},
      {"measurement": "TGI", "setting": "OVCAR-8 ovarian", "result": "> 100", "unit": "µM"},
      {"measurement": "TGI", "setting": "M14 melanoma", "result": 24.2, "unit": "µM"},
      {"measurement": "TGI", "setting": "SK-OV-3 ovarian", "result": "> 100", "unit": "µM"},
      {"measurement": "TGI", "setting": "SF-295 CNS", "result": "> 100", "unit": "µM"},
      {"measurement": "TGI", "setting": "NCI-H522 lung", "result": "> 100", "unit": "µM"},
      {"measurement": "TGI", "setting": "KM12 colon", "result": "> 100", "unit": "µM"},
      {"measurement": "TGI", "setting": "M19-MEL melanoma", "result": "> 100", "unit": "µM"},
      {"measurement": "TGI", "setting": "K-562 leukemia", "result": 63.9, "unit": "µM"},
      {"measurement": "TGI", "setting": "DMS 114 small cell lung", "result": "> 100", "unit": "µM"},
      {"measurement": "TGI", "setting": "UACC-62 melanoma", "result": "> 100", "unit": "µM"},
      {"measurement": "TGI", "setting": "SF-268 CNS", "result": "> 100", "unit": "µM"},
      {"measurement": "TGI", "setting": "XF 498 CNS", "result": "> 100", "unit": "µM"},
      {"measurement": "TGI", "setting": "OVCAR-3 ovarian", "result": "> 100", "unit": "µM"},
      {"measurement": "TGI", "setting": "HOP-92 NSCLC", "result": "> 100", "unit": "µM"},
      {"measurement": "TGI", "setting": "SK-MEL-2 melanoma", "result": "> 100", "unit": "µM"},
      {"measurement": "TGI", "setting": "KM20L2 colon", "result": "> 100", "unit": "µM"},
      {"measurement": "TGI", "setting": "HT29 colon", "result": "> 100", "unit": "µM"},
      {"measurement": "TGI", "setting": "RPMI-8226 leukemia", "result": "> 100", "unit": "µM"},
      {"measurement": "TGI", "setting": "786-0 renal", "result": 37.2, "unit": "µM"},
      {"measurement": "TGI", "setting": "UACC-257 melanoma", "result": "> 100", "unit": "µM"},
      {"measurement": "TGI", "setting": "RXF-631 renal", "result": "> 100", "unit": "µM"},
      {"measurement": "TGI", "setting": "SNB-75 CNS", "result": "> 100", "unit": "µM"},
      {"measurement": "TGI", "setting": "CCRF-CEM leukemia", "result": "> 100", "unit": "µM"},
      {"measurement": "TGI", "setting": "ACHN renal", "result": "> 100", "unit": "µM"},
      {"measurement": "TGI", "setting": "COLO 205 colon", "result": "> 100", "unit": "µM"},
      {"measurement": "TGI", "setting": "OVCAR-4 ovarian", "result": "> 100", "unit": "µM"},
      {"measurement": "TGI", "setting": "LOX IMVI melanoma", "result": "> 100", "unit": "µM"},
      {"measurement": "TGI", "setting": "LXFL 529 NSCLC", "result": "> 100", "unit": "µM"},
      {"measurement": "TGI", "setting": "HOP-62 NSCLC", "result": "> 100", "unit": "µM"},
      {"measurement": "TGI", "setting": "HL-60(TB) leukemia", "result": 42.9, "unit": "µM"},
      {"measurement": "TGI", "setting": "CAKI-1 renal", "result": "> 100", "unit": "µM"},
      {"measurement": "TGI", "setting": "HOP-18 NSCLC", "result": "> 100", "unit": "µM"},
      {"measurement": "TGI", "setting": "SR leukemia", "result": "> 100", "unit": "µM"},
      {"measurement": "TGI", "setting": "IGROV1 ovarian", "result": "> 100", "unit": "µM"},
      {"measurement": "TGI", "setting": "MOLT-4 leukemia", "result": "> 100", "unit": "µM"},
      {"measurement": "TGI", "setting": "HCC-2998 colon", "result": "> 100", "unit": "µM"},
      {"measurement": "TGI", "setting": "HCT-116 colon", "result": "> 100", "unit": "µM"},
      {"measurement": "TGI", "setting": "SW-620 colon", "result": "> 100", "unit": "µM"},
      {"measurement": "TGI", "setting": "A549 NSCLC", "result": "> 100", "unit": "µM"},
      {"measurement": "TGI", "setting": "HCT-15 colon", "result": "> 100", "unit": "µM"},
      {"measurement": "TGI", "setting": "UO-31 renal", "result": "> 100", "unit": "µM"},
      {"measurement": "TGI", "setting": "SK-MEL-28 melanoma", "result": 50.3, "unit": "µM"},
      {"measurement": "TGI", "setting": "MALME-3M melanoma", "result": 41, "unit": "µM"},
      {"measurement": "TGI", "setting": "OVCAR-5 ovarian", "result": "> 100", "unit": "µM"},
      {"measurement": "TGI", "setting": "SF-539 CNS", "result": 40.8, "unit": "µM"},
      {"measurement": "TGI", "setting": "DLD-1 colon", "result": "> 100", "unit": "µM"},
      {"measurement": "TGI", "setting": "EKVX NSCLC", "result": "> 100", "unit": "µM"}
    ]}
  ]
}
